From ChEMBL document CHEMBL1212870, “Concise synthesis of 5,6-dihydrovaltrate leading to enhanced Rev-export inhibitory congener” (Bioorg Med Chem, 2010) come the findings set out here.

This assay is described as follows: Inhibition of hemagglutininin-tagged HIV1 Rev protein nuclear export in human HeLa cells assessed as localization by indirect fluorescent antibody technique. It counts as cell-based, Human immunodeficiency virus 1.
Regarding `CC(=O)OCC1=CO[C@@H](OC(C)=O)[C@H]2[C@@H]1C[C@H](OC(=O)CC(C)C)[C@]21CO1`, the IC50 (commonly the concentration at which inhibition is half-maximal) was 1000 nM. As for `CC(=O)OCC1=CO[C@@H](OC(=O)CC(C)C)[C@H]2[C@@H]1C[C@H](OC(C)=O)[C@]21CO1`, the figure is 2600 nM.

Consider `CC(=O)OCC1=CO[C@@H](OC(=O)CC(C)C)[C@H]2C1=C[C@H](OC(=O)CC(C)C)[C@]21CO1` [VALTRATE], for which the IC50 is 2500 nM.

As to `CCCCOCC1=CO[C@@H](OC(=O)CC(C)C)[C@H]2[C@@H]1C[C@H](OC(=O)CC(C)C)[C@]21CO1`, the 50% inhibitory concentration (IC50) is 3300 nM.

For the compound `CC(=O)OCC1=CO[C@@H](OC(=O)CC(C)C)[C@H]2[C@@H]1C[C@H](OC(=O)CC(C)C)[C@]21CO1`, the IC50 turned out to be 4400 nM.
